Where a name gives a salt, the structure may show the parent alone. Read-outs that look alike come from different tables or passages of the source.
What was measured:
Experiment in all cases: CRE-luciferase assay of odorant receptor activation (Dual-Glo, Hana3A cells, RTP1S), dose-response EC50
Type in all cases: cell-based
[1] = test system: mouse odorant receptors (ORs); settings: for log EC50 (Table 4 value), MOR258-17: receptor MOR258-17; for log EC50 (Table 4 value), MOR271-1 / log EC50, MOR271-1: receptor MOR271-1; for log EC50 (Table 4 value), MOR273-1: receptor MOR273-1; for log EC50 (Table 4 value), MOR5-1: receptor MOR5-1
Excerpt: (§1) Cloning mouse and human ORs. […] OR open reading frames were amplified from genomic DNA using proofreading KOD DNA polymerase (Toyobo/Novagen) and subcloned into pCI expression vectors (Promega) containing the first 20 residues of human rhodopsin (Rho tag). The sequences of the cloned receptors were verified by sequencing (3100 Genetic Analyzer, ABI Biosystems). Immunocytochemistry and FACS analysis. […] For FACS analysis, phycoerythrin (PE)-conjugated anti-mouse IgG (Jackson Immunologicals) was used. In order to monitor the transfection efficiency, Green Fluorescent Protein (GFP) was co-transfected with the OR. The intensity of receptor cell surface expression was calculated as the ratio of PE and GFP expression. 7-aminoactinomycin D (Calbiochem) was added before flow cytometry to mark dead cells which were excluded from the analysis. The gate and mean of PE positive cells was normalized by GFP values. Luciferase assay. […] Odorant receptor activation leads to an increase in intracellular cAMP; CRE-luciferase (Stratagene) was used to measure this change. […] Hana3A cells were plated on poly-D-lysine-coated 96-well plates (BioCoat; Becton Dickinson). […] For each 96-well plate transfected, 1 μg of CRE-Luc, 1 μg of pRL-SV40, 5 μg of odorant receptor plasmid, and 1 μg of RTP1S was used. Approximately 24 hours post transfection, the medium was replaced with CD293 chemically defined medium (Gibco) and the plate was incubed for 30 min at 37° C. The medium was then replaced with 25 μL of odorant solution diluted in CD293 and the plate was incubated for 4 hrs at 37° C. and 5% CO2. The manufacturer's protocols for measuring luciferase and Renilla luciferase activities was followed. […] All luminescence values were divided by the Renilla Luciferase activity to control for transfection efficiency in a given well. Normalized luciferase activity was calculated using the formula (LN−Lmin)/(Lmax−Lmin), where LN is the luminescence of firefly luciferase in response to the odorant, Lmin is the minimum luciferase value on a plate or set of plates, and Lmax is the maximum luciferase value on a plate or set of plates. The data was analyzed using Microsoft Excel and GraphPad Prism 4. Screening procedure. The entire OR library was stimulated with eight separate odorant mixtures formed from 93 odorants (FIG. 12). […] A comparison between the 93 individual odorants at a 100 μM dose and a no-odor control was performed for all 290 […]. Each comparison was performed in triplicate; statistical significance was assessed by t-test (uncorrected for multiple comparisons). […] A single odorant was used on each plate to avoid cross-contamination, and each OR odorant dose was tested at least three times. The data was fit to a sigmoidal curve. […] Physicochemical descriptors. […] Receptor descriptors. […] Correlations between descriptors and responses. […] All odorants for which there were fewer than 3 responsive receptors were eliminated. For all remaining odorant pairs the Pearson correlation between EC50 vectors and the Euclidean distance between descriptor vectors was calculated. The Pearson correlation between these two sets of distances was then measured. Optimizing descriptors. […] In this method one begins with an empty set of descriptors. Each descriptor is combined with the previous set of descriptors and correlation values are computed for all of these candidate sets of descriptors. To reduce overfitting, the data is randomly divided into ten subsets and correlation values are computed for each leave-one out subset. The final correlation coefficient for each set of descriptors is the average of the correlation coefficients for each subset. The set with the best correlation coefficient then becomes the new set of descriptors and the process is repeated until the correlation coefficient increases by less than 0.004 in three consecutive iterations.

[2] = biological target: T1, human odorant receptors (ORs) (Homo sapiens, UniProt Q9Y3N9); settings: receptor OR2W1
T1 construct: OR open reading frames were amplified from genomic DNA; expressed in transfected cells; host or cells: Hana3A cells, co-transfected with RTP1S, CRE-luciferase and pRL-SV40
T1 sequence (Q9Y3N9 1-320): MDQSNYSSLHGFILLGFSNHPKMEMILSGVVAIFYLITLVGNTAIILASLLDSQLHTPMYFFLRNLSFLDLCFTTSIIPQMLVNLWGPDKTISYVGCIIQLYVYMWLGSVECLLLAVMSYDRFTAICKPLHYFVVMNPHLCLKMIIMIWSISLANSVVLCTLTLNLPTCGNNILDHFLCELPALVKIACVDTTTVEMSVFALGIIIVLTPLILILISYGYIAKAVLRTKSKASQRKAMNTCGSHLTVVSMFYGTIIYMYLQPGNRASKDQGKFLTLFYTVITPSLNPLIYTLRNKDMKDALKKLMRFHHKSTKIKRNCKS
Excerpt: as §1, with “For all remaining odorant pairs the Pearson correlation between EC50 vectors and the Euclidean distance between descriptor vectors was calculated.” left out, “subset.” for “subset. The set with the best correlation coefficient then becomes the new set of descriptors and the process is repeated until the correlation coefficient increases by less than 0.004 in three consecutive iterations.”
(§2) The entire OR library was stimulated with one of 8 odorant mixtures drawn from 93 odorants chosen to represent diverse functional groups, sizes, and structures (Table 3). Each mixture was applied at five different concentrations. […] The 93 odorants were then applied individually at 100 μM to the 290 mixture-responsive ORs.

[3] = biological target: T2, human odorant receptors (ORs) (Homo sapiens, UniProt Q9P1Q5); settings: receptor OR1A1; read-out: log EC50 (Table 4 value), OR1A1 (converted)
T2 construct: OR open reading frames were amplified from genomic DNA; expressed in transfected cells; host or cells: Hana3A cells, co-transfected with RTP1S, CRE-luciferase and pRL-SV40
T2 sequence (Q9P1Q5 1-309): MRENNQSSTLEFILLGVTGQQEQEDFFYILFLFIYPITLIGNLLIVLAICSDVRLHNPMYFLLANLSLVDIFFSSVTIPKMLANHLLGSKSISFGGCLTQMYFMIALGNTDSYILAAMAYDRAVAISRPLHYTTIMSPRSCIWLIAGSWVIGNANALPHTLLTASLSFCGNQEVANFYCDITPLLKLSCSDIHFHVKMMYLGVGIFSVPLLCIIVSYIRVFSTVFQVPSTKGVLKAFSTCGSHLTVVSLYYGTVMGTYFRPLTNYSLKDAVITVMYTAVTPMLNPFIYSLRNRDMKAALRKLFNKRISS
Excerpt: as §1, with “For all remaining odorant pairs the Pearson correlation between EC50 vectors and the Euclidean distance between descriptor vectors was calculated.” left out, “subset.” for “subset. The set with the best correlation coefficient then becomes the new set of descriptors and the process is repeated until the correlation coefficient increases by less than 0.004 in three consecutive iterations.”
as §2

[4] = read-out: log EC50 (Table 4 value), OR2W1 (converted)
[5] = read-out: log EC50 of odorant at OR2W1 (0 = no response) (converted)

CCC(C(=O)O)c1ccccc1 (single isomer, unassigned; (-)) [(−)-2-Phenylbutric acid]
log EC50, MOR2-1 ([1]; receptor MOR2-1, 0 = no response): −2.982

CCCCCCC=O [Heptonal]
log EC50 (Table 4 value), OR2W1 [2]: −4.056

O=C1CCCCC1 [Cyclohexanone]
log EC50 (Table 4 value), MOR41-1 ([1]; receptor MOR41-1): −3.456
log EC50 (Table 4 value), MOR136-1 ([1]; receptor MOR136-1): −3.065
log EC50 (Table 4 value), MOR139-1 ([1]; receptor MOR139-1): −3.138
log EC50 (Table 4 value), MOR185-1 ([1]; receptor MOR185-1): −3.594
log EC50 (Table 4 value), MOR251-1 ([1]; receptor MOR251-1): −3.193
log EC50 (Table 4 value), MOR253-1 ([1]; receptor MOR253-1): −3.219
log EC50 (Table 4 value), MOR258-1 ([1]; receptor MOR258-1): −3.824
log EC50 (Table 4 value), MOR258-17 [1]: −4.1
log EC50 (Table 4 value), MOR271-1 [1]: −3.463
log EC50 (Table 4 value), MOR272-1 ([1]; receptor MOR272-1): −3.254
log EC50 (Table 4 value), MOR273-1 [1]: −3.208
log EC50 (Table 4 value), MOR277-1 ([1]; receptor MOR277-1): −3.568

CCCCOC=O [Butyl formate]
EC50 [2, 4]: 37.4 µM

C=CCOC(=O)CCCCCC [Allyl heptanoate]
EC50 [3]: 475 µM

CCOC(=O)C(C)C [Ethyl isobutyrate]
log EC50 (Table 4 value), MOR271-1 [1]: −4.077
log EC50 (Table 4 value), MOR272-1 ([1]; receptor MOR272-1): −5.25
log EC50 (Table 4 value), MOR273-1 [1]: −5.761

CCCCCCCCCC=O [Daconal]
log EC50 (Table 4 value), MOR30-1 ([1]; receptor MOR30-1): −4.033
log EC50 (Table 4 value), MOR37-1 ([1]; receptor MOR37-1): −3.477

CCCCCCO [Hexanol]
log EC50 (Table 4 value), MOR1-1 ([1]; receptor MOR1-1): −3.987
log EC50 (Table 4 value), MOR4-1 ([1]; receptor MOR4-1): −3.231
log EC50 (Table 4 value), MOR271-1 [1]: −3.322
log EC50 (Table 4 value), OR2W1 [2]: −5.102

CCCCCOC(=O)CCCCC [Amyl hexanote]
log EC50 (Table 4 value), MOR258-17 [1]: −4.462

COc1cc(C(=O)O)ccc1O [Vanillic acid]
log EC50 of odorant at MOR9-1 (0 = no response) ([1]; receptor MOR9-1): −6.334
log EC50 of odorant at MOR15-1 (0 = no response) ([1]; receptor MOR15-1): −3.587

CCCCCCCCC=O [Nonanal]
log EC50 of odorant at MOR30-1 (0 = no response) ([1]; receptor MOR30-1): −3.914
log EC50 of odorant at MOR33-1 (0 = no response) ([1]; receptor MOR33-1): −3.234
log EC50 of odorant at MOR37-1 (0 = no response) ([1]; receptor MOR37-1): −3.295
log EC50 of odorant at MOR40-1 (0 = no response) ([1]; receptor MOR40-1): −3.194
EC50 [2, 5]: 252 µM

CCCCCCCCCC(=O)O [Decanoic acid]
log EC50 (Table 4 value), MOR5-1 [1]: −3.749
log EC50 (Table 4 value), MOR25-1 ([1]; receptor MOR25-1): −4.194
log EC50 (Table 4 value), MOR30-1 ([1]; receptor MOR30-1): −4.987
log EC50 (Table 4 value), MOR33-1 ([1]; receptor MOR33-1): −4.487
log EC50 (Table 4 value), MOR37-1 ([1]; receptor MOR37-1): −4.323
log EC50 (Table 4 value), MOR40-1 ([1]; receptor MOR40-1): −4.121
log EC50 (Table 4 value), MOR203-1 ([1]; receptor MOR203-1): −3.751
log EC50 (Table 4 value), MOR258-17 [1]: −4.627
log EC50 (Table 4 value), MOR260-1 ([1]; receptor MOR260-1): −3.542
EC50 [2, 4]: 175 µM

CCCCCCCC=O [Octanal]
EC50 [2, 5]: 43.6 µM

CCCCCCOC(C)=O [Hexyl acetate]
EC50 [2, 5]: 13.7 µM

CCCC(C)=O [2-Penonone]
log EC50, MOR271-1 ([1]; 0 = no response): −5.111

CCCCC(=O)O [Pentanoic acid]
log EC50 of odorant at MOR1-1 (0 = no response) ([1]; receptor MOR1-1): −4.813

CCCCC(C)=O [2-Hexanone]
log EC50, MOR271-1 ([1]; 0 = no response): −4.936
log EC50, MOR272-1 ([1]; receptor MOR272-1, 0 = no response): −4.251
EC50 ([2]; 0 = no response, read-out: log EC50, OR2W1 (converted)): 73.3 µM

CC12CCC(CC1=O)C2(C)C (stereo not drawn) [(−)-Camphor]
log EC50, MOR107-1 ([1]; receptor MOR107-1, 0 = no response): −3.704
log EC50, MOR128-2 ([1]; receptor MOR128-2, 0 = no response): −4.373
log EC50, MOR138-1 ([1]; receptor MOR138-1, 0 = no response): −4.952
log EC50, MOR139-1 ([1]; receptor MOR139-1, 0 = no response): −3.902
log EC50, MOR189-1 ([1]; receptor MOR189-1, 0 = no response): −4.839
log EC50, MOR277-1 ([1]; receptor MOR277-1, 0 = no response): −3.861

CCCCCO [1-Pentanol]
log EC50, MOR41-1 ([1]; receptor MOR41-1, 0 = no response): −3.537

c1ccccc1 [Benzene]
log EC50 (Table 4 value), MOR271-1 [1]: −4.005

O=c1cc(O)c2ccccc2o1 [4-Hydroxycoumarin]
log EC50 (Table 4 value), MOR41-1 ([1]; receptor MOR41-1): −4.344

CCCCCCC(=O)O [Heptanoic acid]
log EC50 (Table 4 value), MOR1-1 ([1]; receptor MOR1-1): −3.823
log EC50 (Table 4 value), MOR5-1 [1]: −3.583
log EC50 (Table 4 value), MOR23-1 ([1]; receptor MOR23-1): −4.856
log EC50 (Table 4 value), MOR30-1 ([1]; receptor MOR30-1): −3.575
log EC50 (Table 4 value), MOR31-1 ([1]; receptor MOR31-1): −5.2
log EC50 (Table 4 value), MOR33-1 ([1]; receptor MOR33-1): −4.148

From patent US20100248390A1, “COMPOSITIONS AND METHODS FOR IDENTIFYING LIGANDS OF ODORANT RECEPTORS” (DUKE UNIVERSITY, priority 2009, published 2010)
